Measured values taken from ChEMBL document CHEMBL1201862, “PubChem BioAssay data set” (2004).
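1) Cells in 96-well plates. 2) Compound, 48 h, 5 concentrations. 3) Linear interpolation between surrounding doses. 4) Unreached endpoint = highest concentration. GI50 marks 50% less growth.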 The source made the active and inactive calls. No stated cut-off is given here; in the data, active = GI50 up to about 1.1 µM and inactive = higher.

Experiments:
Assay in all cases: inhibition of tumour cell growth, NCI panel, 48 h
CCRF-CEM = test system: CCRF-CEM
SK-MEL-5 = test system: SK-MEL-5
COLO 205 = test system: COLO 205
SF-539 = test system: SF-539
SF-295 = test system: SF-295
MOLT-4 = test system: MOLT-4
HCT-116 = test system: HCT-116
KM12 = test system: KM12
A549 = test system: A549
HOP-62 = test system: HOP-62
SK-MEL-2 = test system: SK-MEL-2
ACHN = test system: ACHN
UACC-62 = test system: UACC-62
U-251 = test system: U-251
Malme-3M = test system: Malme-3M
HL-60 = test system: HL-60
LOX IMVI = test system: LOX IMVI
K562 = test system: K562
OVCAR-4 = test system: OVCAR-4

Measured: GI50

CSc1nc(NC2OCC(OC(C)=O)C(OC(C)=O)C2OC(C)=O)c2c(n1)OCC2=O (configuration not stated)
inactive: CCRF-CEM > 100 µM | SK-MEL-5 > 100 µM | COLO 205 > 100 µM | SF-539 > 100 µM | SF-295 > 100 µM | MOLT-4 > 100 µM | HCT-116 > 100 µM | KM12 > 100 µM | A549 > 100 µM | HOP-62 > 100 µM | SK-MEL-2 > 100 µM | ACHN > 100 µM | UACC-62 > 100 µM | U-251 > 100 µM | Malme-3M > 100 µM | HL-60 > 100 µM | LOX IMVI > 100 µM | K562 > 100 µM

Cc1cc(NS(=O)(=O)c2ccc(Nc3c4ccccc4nc4c(C(=O)N5CCN(CCO)CC5)ccc(Cl)c34)cc2)no1
inactive: CCRF-CEM 28.8 µM | SK-MEL-5 36.3 µM | COLO 205 > 100 µM | SF-539 > 100 µM | SF-295 > 100 µM | OVCAR-4 > 100 µM | MOLT-4 36.3 µM | HCT-116 > 100 µM | KM12 > 100 µM | A549 > 100 µM | HOP-62 > 100 µM | SK-MEL-2 42.1 µM | UACC-62 42.5 µM | U-251 > 100 µM | Malme-3M > 100 µM | HL-60 60.3 µM | K562 48.4 µM

CC(=O)C(CN(C)Cc1ccccc1)C(c1ccccc1)c1c(O)c2ccccc2oc1=O (configuration not stated)
inactive: CCRF-CEM > 100 µM | SK-MEL-5 > 100 µM | COLO 205 > 100 µM | SF-539 > 100 µM | SF-295 > 100 µM | OVCAR-4 > 100 µM | MOLT-4 > 100 µM | HCT-116 > 100 µM | KM12 > 100 µM | A549 > 100 µM | HOP-62 > 100 µM | SK-MEL-2 > 100 µM | ACHN > 100 µM | UACC-62 > 100 µM | U-251 > 100 µM | Malme-3M > 100 µM | HL-60 52.5 µM | LOX IMVI > 100 µM | K562 > 100 µM

CN(C)c1nncc2[nH]nnc12
inactive: CCRF-CEM > 100 µM | SK-MEL-5 > 100 µM | COLO 205 > 100 µM | SF-539 > 100 µM | SF-295 > 100 µM | OVCAR-4 > 100 µM | MOLT-4 > 100 µM | HCT-116 > 100 µM | KM12 > 100 µM | A549 > 100 µM | HOP-62 > 100 µM | SK-MEL-2 > 100 µM | ACHN > 100 µM | UACC-62 > 100 µM | U-251 > 100 µM | Malme-3M 92.3 µM | HL-60 > 100 µM | LOX IMVI > 100 µM | K562 > 100 µM

CCOc1ccc(/N=C\c2ccc3cc(C)ccc3n2)cc1
inactive: CCRF-CEM 22.5 µM | SK-MEL-5 57.8 µM | COLO 205 > 100 µM | SF-539 40.3 µM | SF-295 68.5 µM | OVCAR-4 75.3 µM | MOLT-4 27.3 µM | KM12 37.1 µM | A549 > 100 µM | HOP-62 > 100 µM | SK-MEL-2 45.1 µM | ACHN 35.8 µM | UACC-62 37.9 µM | U-251 > 100 µM | Malme-3M > 100 µM | HL-60 19.5 µM | LOX IMVI 30.6 µM | K562 25.4 µM

CC1C[C@H](C)CC(C(O)CC2CC(=O)N(Cc3ccccc3)C(=O)C2)C1O (some centres not stated)
inactive: CCRF-CEM > 100 µM | COLO 205 > 100 µM | SF-539 > 100 µM | SF-295 > 100 µM | OVCAR-4 > 100 µM | MOLT-4 > 100 µM | HCT-116 > 100 µM | KM12 48.9 µM | A549 > 100 µM | HOP-62 > 100 µM | ACHN > 100 µM | UACC-62 > 100 µM | U-251 > 100 µM | Malme-3M > 100 µM | HL-60 > 100 µM | LOX IMVI > 100 µM | K562 > 100 µM

O/N=C1/C(=C/c2ccc3c(c2)OCO3)CCCC1C(NO)c1ccc2c(c1)OCO2 (configuration not stated)
inactive: CCRF-CEM 19.2 µM | SK-MEL-5 17.4 µM | COLO 205 25.4 µM | SF-539 18 µM | OVCAR-4 24.6 µM | MOLT-4 16.9 µM | HCT-116 17.3 µM | KM12 22.7 µM | A549 29.9 µM | HOP-62 21.1 µM | SK-MEL-2 21.4 µM | ACHN 31.6 µM | UACC-62 19 µM | U-251 20.8 µM | Malme-3M 22 µM | HL-60 15.9 µM | K562 24.9 µM

COc1ccc(C2c3c[nH]nc3CC3CCCCC32)cc1 (configuration not stated)
inactive: CCRF-CEM 21.9 µM | SK-MEL-5 15.7 µM | OVCAR-4 16.7 µM | MOLT-4 17.7 µM | HCT-116 17.8 µM | A549 14.5 µM | HOP-62 21.3 µM | SK-MEL-2 17.9 µM | ACHN 19 µM | UACC-62 11.9 µM | U-251 15.5 µM | Malme-3M 19.5 µM | HL-60 23.4 µM | LOX IMVI 17.9 µM | K562 22.2 µM

NC(=O)C12CCC1C1CCCCC12N1CCOCC1 (configuration not stated)
inactive: CCRF-CEM > 100 µM | SK-MEL-5 > 100 µM | SF-539 > 100 µM | SF-295 > 100 µM | OVCAR-4 > 100 µM | MOLT-4 > 100 µM | HCT-116 > 100 µM | KM12 > 100 µM | A549 > 100 µM | HOP-62 > 100 µM | SK-MEL-2 > 100 µM | ACHN > 100 µM | UACC-62 > 100 µM | U-251 > 100 µM | Malme-3M > 100 µM | HL-60 > 100 µM | LOX IMVI > 100 µM | K562 > 100 µM

COC(=O)C1Cc2c(n(C)c3ccccc23)C(c2ccccc2)N1 (configuration not stated)
inactive: CCRF-CEM 52.1 µM | SK-MEL-5 21.1 µM | COLO 205 23 µM | SF-539 > 10 µM | SF-295 > 100 µM | OVCAR-4 50.5 µM | MOLT-4 29.6 µM | HCT-116 34.4 µM | KM12 > 100 µM | A549 > 100 µM | SK-MEL-2 47.6 µM | ACHN 39.3 µM | UACC-62 62.8 µM | U-251 48 µM | Malme-3M > 100 µM | HL-60 10.1 µM | LOX IMVI 78.7 µM | K562 47.6 µM

CN(C)CCCNc1ccc2ncn3c4ccccc4c(=O)c1c23
inactive: CCRF-CEM 4.39 µM | COLO 205 2.49 µM | SF-539 8.73 µM | SF-295 6.3 µM | OVCAR-4 21.9 µM | MOLT-4 2.91 µM | HCT-116 3.48 µM | KM12 5.87 µM | HOP-62 33.6 µM | SK-MEL-2 13.6 µM | ACHN 4.81 µM | UACC-62 12.8 µM | U-251 11.4 µM | Malme-3M 13.7 µM | HL-60 6.41 µM | LOX IMVI 3.51 µM | K562 3.77 µM

O=c1c2ccccc2c(=O)c2c1cc(Cl)c1[nH]c3c([nH]c12)c(Cl)cc1c(=O)c2ccccc2c(=O)c13
inactive: CCRF-CEM > 100 µM | COLO 205 > 100 µM | SF-539 > 100 µM | SF-295 > 100 µM | OVCAR-4 > 100 µM | MOLT-4 > 100 µM | HCT-116 > 100 µM | KM12 > 100 µM | A549 > 100 µM | HOP-62 > 100 µM | SK-MEL-2 > 100 µM | ACHN > 100 µM | UACC-62 > 100 µM | U-251 > 100 µM | Malme-3M > 100 µM | HL-60 > 100 µM | K562 > 100 µM

CC1(C)CC2(S(=O)(=O)c3ccccc3)ON1CC2S(=O)(=O)c1ccccc1 (configuration not stated)
inactive: CCRF-CEM 26.8 µM | COLO 205 > 100 µM | SF-539 > 100 µM | SF-295 > 100 µM | OVCAR-4 54.6 µM | MOLT-4 30.8 µM | HCT-116 > 100 µM | KM12 > 100 µM | A549 > 100 µM | HOP-62 > 100 µM | SK-MEL-2 > 100 µM | ACHN > 100 µM | UACC-62 91.2 µM | U-251 > 100 µM | Malme-3M > 100 µM | HL-60 26.4 µM | LOX IMVI 87.1 µM | K562 47.1 µM

CN(C)c1n/c(=N/c2ccc3c(c2)OCO3)ss1
inactive: CCRF-CEM 32.5 µM | SK-MEL-5 55.3 µM | SF-539 67.6 µM | SF-295 > 100 µM | OVCAR-4 > 100 µM | MOLT-4 22.4 µM | HCT-116 49 µM | KM12 51.5 µM | A549 44.6 µM | HOP-62 > 100 µM | SK-MEL-2 > 100 µM | ACHN 84.9 µM | UACC-62 58.3 µM | U-251 37.6 µM | Malme-3M > 100 µM | HL-60 19 µM | LOX IMVI 64 µM | K562 34.8 µM

Cc1cn2c(=O)c3ncn(C4OC(CO)C(O)C4O)c3n(C)c2n1 (configuration not stated)
inactive: CCRF-CEM > 100 µM | SK-MEL-5 > 100 µM | COLO 205 > 100 µM | SF-539 > 100 µM | SF-295 > 100 µM | OVCAR-4 > 100 µM | MOLT-4 > 100 µM | HCT-116 > 100 µM | KM12 > 100 µM | A549 > 100 µM | SK-MEL-2 > 100 µM | ACHN > 100 µM | UACC-62 > 100 µM | U-251 > 100 µM | Malme-3M > 100 µM | HL-60 > 100 µM | LOX IMVI > 100 µM | K562 > 100 µM

NS(=O)(=O)c1ccc(NC(=O)Cc2nc3ccccc3s2)cc1
inactive: CCRF-CEM 13.4 µM | SK-MEL-5 20.2 µM | COLO 205 19.5 µM | SF-539 18.3 µM | SF-295 19 µM | OVCAR-4 19.3 µM | MOLT-4 20.1 µM | HCT-116 16.6 µM | KM12 16.3 µM | A549 20.6 µM | HOP-62 22.3 µM | SK-MEL-2 14.9 µM | ACHN 15.5 µM | UACC-62 15.7 µM | U-251 15.2 µM | Malme-3M 16 µM | HL-60 19.1 µM | K562 23.6 µM
